# What was measured:
# [1] = test system: Mice expressing CAPS-related NLRP3 mutations; conditions: strain expressing CAPS-related NLRP3 mutations; cited from earlier work
# NLRP3 inflammasome = NLRP3 inflammasome (Homo sapiens (Human), UniProt Q96P20); assay: Evaluation of NLRP3 inflammasome inhibitory activity (inhibition of IL-1β production in THP1-Null cells, LPS/Nigericin); conditions: for IC50: IL-1β production in THP1-Null cells, PMA/LPS primed, Nigericin 7.5 μmol/L
# MOG35-55EAE model mice = conditions: administration after the onset; cited from earlier work
# [2] = test system: intra-articular urate-injected arthritis model; conditions: cited from earlier work
# Sequence of NLRP3 inflammasome (Q96P20 whole entry): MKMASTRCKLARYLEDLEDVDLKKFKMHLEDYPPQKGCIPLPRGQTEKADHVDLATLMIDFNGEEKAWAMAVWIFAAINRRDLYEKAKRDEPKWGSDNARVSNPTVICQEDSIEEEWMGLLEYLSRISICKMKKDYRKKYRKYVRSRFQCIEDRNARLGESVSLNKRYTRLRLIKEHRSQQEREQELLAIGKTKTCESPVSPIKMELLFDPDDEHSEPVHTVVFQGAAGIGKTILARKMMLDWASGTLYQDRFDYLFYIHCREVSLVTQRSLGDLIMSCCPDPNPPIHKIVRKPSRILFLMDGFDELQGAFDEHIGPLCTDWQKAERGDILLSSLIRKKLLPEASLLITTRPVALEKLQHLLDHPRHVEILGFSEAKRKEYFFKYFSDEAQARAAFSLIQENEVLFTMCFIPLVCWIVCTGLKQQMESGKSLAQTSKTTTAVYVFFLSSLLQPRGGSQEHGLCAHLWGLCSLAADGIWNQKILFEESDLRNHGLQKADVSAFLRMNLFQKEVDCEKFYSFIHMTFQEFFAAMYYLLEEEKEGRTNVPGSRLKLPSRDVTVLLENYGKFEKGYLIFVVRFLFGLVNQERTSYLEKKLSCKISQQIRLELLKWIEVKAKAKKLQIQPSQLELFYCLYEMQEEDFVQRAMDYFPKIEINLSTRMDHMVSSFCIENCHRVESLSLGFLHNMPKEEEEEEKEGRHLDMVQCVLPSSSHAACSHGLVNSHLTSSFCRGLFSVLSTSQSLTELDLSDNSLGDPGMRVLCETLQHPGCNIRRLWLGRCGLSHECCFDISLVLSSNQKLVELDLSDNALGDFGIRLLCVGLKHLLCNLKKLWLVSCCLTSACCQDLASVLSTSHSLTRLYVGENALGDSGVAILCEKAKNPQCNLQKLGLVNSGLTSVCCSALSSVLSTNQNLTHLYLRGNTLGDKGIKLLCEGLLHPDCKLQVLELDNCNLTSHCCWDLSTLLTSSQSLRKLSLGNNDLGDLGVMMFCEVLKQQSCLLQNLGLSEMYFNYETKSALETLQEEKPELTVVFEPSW
IC50 (NLRP3 inflammasome) [µM],Compound,further results
,O=C(O)c1ccc(/C=C2/SC(=S)N(Cc3cccc(C(F)(F)F)c3)C2=O)cc1 [CY-09],survival [1]: improved the survival; systemic lethal inflammation [1]: suppressed systemic lethal inflammation
0.23,C[C@H]1CCCN1S(=O)(=O)NC(=O)c1coc(Nc2c3c(c(Cl)c4c2CCC4)CCC3)n1 [Example 44],
0.2,C[C@@H]1CCCN1S(=O)(=O)NC(=O)c1coc(Nc2c3c(c(Cl)c4c2CCC4)CCC3)n1 [Example 45],
0.35,O=C(NS(=O)(=O)N1CCCn2nccc21)c1coc(Nc2c3c(c(Cl)c4c2CCC4)CCC3)n1 [Example 46],
,O=C(NS(=O)(=O)N1CCC2(COC2)C1)c1coc(Nc2c3c(c(Cl)c4c2CCC4)CCC3)n1 [Example 48],inhibition at 30 µM (NLRP3 inflammasome; read-out: Inhibition at 30 μM): 23%
0.27,O=C(NS(=O)(=O)N1CCC(F)(F)C1)c1coc(Nc2c3c(c(Cl)c4c2CCC4)CCC3)n1 [Example 49],
< 0.03,O=C(NS(=O)(=O)N1CC2CCC(C1)O2)c1coc(Nc2c3c(c(Cl)c4c2CCC4)CCC3)n1 [Example 51],
< 0.03,O=C(NS(=O)(=O)N1CCOCC1)c1coc(Nc2c3c(c(F)c4c2CCC4)CCC3)n1 [Example 53],
0.17,CC(=O)N1CCN(S(=O)(=O)NC(=O)c2coc(Nc3c4c(c(Cl)c5c3CCC5)CCC4)n2)CC1 [Example 54],
0.16,CS(=O)(=O)N1CCN(S(=O)(=O)NC(=O)c2coc(Nc3c4c(c(Cl)c5c3CCC5)CCC4)n2)CC1 [Example 55],
0.074,O=C(NS(=O)(=O)N1CCOC2(COC2)C1)c1coc(Nc2c3c(c(Cl)c4c2CCC4)CCC3)n1 [Example 57],
0.039,CS(=O)(=O)C1CCN(S(=O)(=O)NC(=O)c2coc(Nc3c4c(c(F)c5c3CCC5)CCC4)n2)CC1 [Example 58],
0.044,O=C(NS(=O)(=O)N1CC2CCC(C1)O2)c1coc(Nc2c3c(c(F)c4c2CCC4)CCC3)n1 [Example 59],
0.13,O=C(NS(=O)(=O)N1C[C@H]2COC[C@H]2C1)c1coc(Nc2c3c(c(F)c4c2CCC4)CCC3)n1 [Example 60],
0.17,O=C(NS(=O)(=O)N1C[C@H]2COC[C@H]2C1)c1coc(Nc2c3c(c(Cl)c4c2CCC4)CCC3)n1 [Example 61],
0.27,CC(=O)NC1CCN(S(=O)(=O)NC(=O)c2coc(Nc3c4c(c(F)c5c3CCC5)CCC4)n2)CC1 [Example 62],
0.9,CN(C)C(=O)C1CCN(S(=O)(=O)NC(=O)c2coc(Nc3c4c(c(F)c5c3CCC5)CCC4)n2)CC1 [Example 63],
5.7,CN1CCN(S(=O)(=O)NC(=O)c2coc(Nc3c4c(c(F)c5c3CCC5)CCC4)n2)CC1=O [Example 64],
0.063,O=C1CCN(S(=O)(=O)NC(=O)c2coc(Nc3c4c(c(Cl)c5c3CCC5)CCC4)n2)C1 [Example 65],
< 0.03,CN(C)S(=O)(=O)C1CCN(S(=O)(=O)NC(=O)c2coc(Nc3c4c(c(F)c5c3CCC5)CCC4)n2)CC1 [Example 66],
0.84,CCOC(=O)c1c2c(nn1C)CN(S(=O)(=O)NC(=O)c1coc(Nc3c4c(c(F)c5c3CCC5)CCC4)n1)C2 [Example 67],
0.15,Cc1ccc2c(c1Nc1nc(C(=O)NS(=O)(=O)N(C)C)co1)CCC2 [Example 69],
< 0.03,Cc1ccc(C(F)(F)F)cc1Nc1nc(C(=O)NS(=O)(=O)N2CCOCC2)co1 [Example 70],
0.032,Cc1ccc(C(F)(F)F)cc1Nc1nc(C(=O)NS(=O)(=O)N2CCC(S(=O)(=O)N(C)C)CC2)co1 [Example 75],
0.092,Cc1ccc(C(F)(F)F)cc1Nc1nc(C(=O)NS(=O)(=O)N2CCCC2)co1 [Example 76],
0.056,Cc1ccc(C(F)(F)F)cc1Nc1nc(C(=O)NS(=O)(=O)N2CC3CCC(C2)O3)co1 [Example 77],
,"COc1ccc(Cl)cc1C(=O)NCCc1ccc(S(=O)(=O)NO)cc1 [JC-171, 5-Chloro-N-[2-(4-hydroxysulfamoyl-phenyl)-ethyl]-2-methoxy-benzamide]",impairment of motor function (MOG35-55EAE model mice): inhibited the impairment of motor function
,CS(=O)(=O)CCC#N [OLT1177],arthritis [2]: suppressed arthritis

Compound,IC50 (NLRP3 inflammasome) [µM],further results
O=C(NS(=O)(=O)N1C2CCC1CC2)c1coc(Nc2c3c(c(Cl)c4c2CCC4)CCC3)n1 [Example 50],0.72,

# Source: patent publication US20230399319A1, “Acylsulfamide Compound and Pharmaceutical Use Therefor” (Japan Tobacco Inc., priority 2019, published 2023)
